Source: US9486447B2, “Compositions and methods for controlling neuronal excitation” (The General Hospital Corporation, priority 2011, dated 2016)

Experiments:
zebrafish embryos = assay: Zebrafish behavioral assay (light-dependent motor excitation, excitation score); assay type: in vivo
Method: To identify small molecules for the optical control of endogenous channels, a screen was conducted for compounds that could drive light-dependent motor behaviors in wild-type zebrafish. Zebrafish embryos are particularly well suited for phenotype based chemical screens^28,29. They are blind for the first 3 days of development and other than a one-time motor response to the first light exposure in dark-adapted animals (the photomotor response, PMR), zebrafish embryos are unresponsive to light^31,30 (FIG. 1A). A library of 10,000 structurally diverse synthetic small molecules was screened for compounds that render zebrafish embryos responsive to light. Behavioral responses were measured for each well in comparison to a set of 2,500 DMSO treated controls. This screen identified a single compound, optovin, that increased motor activity greater than 40 standard deviations above the control mean (FIGS. 1A-1C).
A large number of fertilized eggs (up to 5,000 embryos per day) were collected from group mating of Ekkwill or TuAB zebrafish. Embryos were raised in HEPES (10 mM) buffered E3 media in a dark incubator at 28° C. until […]. Groups of ˜8 embryos (28 hpf) were distributed into the wells of flat bottom black-walled 96 well plates filled with E3 media (360 μl). Embryos were then incubated in a dark incubator 25° C. for chemical treatment and subsequent experiments.
The Tim Tec ACTIPROBEβ library contains 10,000 compounds dissolved in DMSO at a stock concentration of 1 mg/ml (˜3 mM). The Tim Tec library was screened at a 1:300 dilution in E3 buffer for a final concentration of ˜10 μM. Negative controls were treated with an equal volume of DMSO. Stock solutions were added directly to zebrafish in the wells of a 96 well plate, mixed, and allowed to incubate for 2-10 hours in the dark prior to behavioral evaluation in the PMR assay. The Tim Tec library (10,000 compounds) was purchased from the Tim Tec corporation (Newark, Del.). The Neurotransmitter Library (700 compounds; cat #2810) was purchased from Biomol International. Reordered hit compounds were dissolved in DMSO and added to wells as described above.
Animals were exposed to a two pulse stimulus train with a 10 s inter-stimulus interval. Exposure to the first pulse was used to trigger the photomotor response, which has a refractory phase of approximately 10 minutes. […] In a typical assay, 1000 frames of digital video were recorded at 33 fps using a Hamamatsu ORCA-ER camera mounted on a Nikon TE200 microscope with a 1× objective. Instrument control and data measurement were performed using custom scripts for Metamorph Software (Molecular Devices). Each video was saved for review. Light stimuli were generated with a 300-watt xenon bulb housed in a Sutter Lambda LS illuminator and delivered to the well 10 s and 20 s after the start of each video. A cold mirror (reflectance between 300 nm and 700 nm) on the Sutter illuminator was used to block wavelengths outside of this range. Light intensity was measured using a PM100D power meter attached to a S120VC photodiode power sensor (Thorlabs). Where indicated, filters were used to restrict the excitation light to the indicated wavelengths.
To analyze digital video recordings, custom software scripts were used to automatically draw six evenly spaced line segments across each well such that each embryo is likely to be crossed by one of the lines. The software then tracks the average intensity of the pixels for each segment over time. As the embryos move, the light intensity at some of the pixels changes. The motion index was calculated by taking the total absolute difference in pixel intensity between frames. This motion index correlates with the overall amount of motion in the well, both in terms of contraction frequency and number of animals in motion. Behavioral features are quantified by ‘excitation scores’ that are calculated by taking the 75th percentile of the motion index for 3-5 s following the light stimulus. […]

hTRPA1 = molecular target: T1, hTRPA1 (Homo sapiens, UniProt O75762); assay: Calcium imaging of transfected HEK cells; assay type: cell-based
T1 construct: expressed in transfected cells; host or cells: HEK293 / HEK293T
Method: (§1) To determine if TRPA1 is sufficient for optovin activity, current density amplitudes were analyzed via whole-cell patch clamping in HEK293T cells transfected with the human TrpA1 (hTrpA1) gene.
HEK293 cells were plated onto poly-lysine-coated glass bottom culture dishes (MatTek Corp), and grown in Dulbecco's Modified Eagle's Medium (DMEM, Sigma) supplemented with 10% fetal bovine serum and 100 U/mL penicillin and 100 μg/ml streptomycin. After 24 hrs, cells were transfected, according to manufacturer's instructions, in Opti-MEM media, using 4 μl lipofectamine 2000 (Invitrogen), 0.5 ug EGFP in pcDNA, and 0.3 μg TrpA1 DNA per dish. Media was replaced after 2 hours, and cells were cultured for an additional 17 hours. As previously described for neurons, HEK cells were washed with assay buffer (HBSS Gibco 14025, supplemented with 9 mM HEPES, 11 mM D-glucose, 0.1% fatty-acid free BSA, pH 7.3) and incubated for 1 h with 2 μM Fura2-AM (Invitrogen) with 0.2% pluronic (Invitrogen) in assay buffer in the dark at room temperature. The cells were then washed with assay buffer and allowed to equilibrate at room temperature for 30 min prior to imaging. At the start of the imaging session for each dish, cells were replaced with DMSO-assay buffer. After 50 seconds of imaging, assay buffer was aspirated by hand, and replaced with 100 μM optovin dissolved in the DMSO-assay buffer solution. Each dish of HEK cells was imaged for a total of 3 minutes.
Cells were transfected with the hTRPA1^44, TRPA1 C621S^44, hTRPA1 C633S^45 and hTRPA1 C633S, C856S^45 plasmids as described.

human TrpA1 (hTrpA1) = molecular target: T2, human TrpA1 (hTrpA1) (Homo sapiens, UniProt O75762); assay: Whole-cell patch clamp in transfected HEK293T cells; assay type: cell-based; details: 10 μM, following photo-stimulation (405 nm)
T2 construct: expressed in transfected cells; host or cells: HEK293 / HEK293T
Method: as §1
HEK293 cells were plated upon poly-lysine coated cover slips and transiently transfected with human TRPA1. Voltage clamp recordings were made in the whole-cell configuration 48 hours after transfection using glass electrodes with 2-4M ohm resistance when filled with (in mM) 140 CsCl, 2 Mg2ATP3, 2 MgCl, 5 EGTA, and 10 HEPES (pH adjusted to 7.2 with CsOH) and while bathed at room temperature in extracellular solution containing (in mM) 150 NaCl, 5.4 KCl, 1.8 CaCl2, 1 MgCl, and 5 mM HEPES (pH adjusted to 7.4 with NaOH). A voltage ramp protocol from −80 mV to +80 mV over 400 ms was repeated every 5 seconds during the following conditions: while the cell was dialyzed by the pipette, followed by at least 60 seconds of illumination with 405 nm light, after which optovin (10 μM) containing extracellular solution was perfused into the bath, followed by 1 minute of illumination. Current elicited at holding potentials of +/−70 mV were used to characterize TRPA1 activation.

T1 sequence (O75762 whole entry): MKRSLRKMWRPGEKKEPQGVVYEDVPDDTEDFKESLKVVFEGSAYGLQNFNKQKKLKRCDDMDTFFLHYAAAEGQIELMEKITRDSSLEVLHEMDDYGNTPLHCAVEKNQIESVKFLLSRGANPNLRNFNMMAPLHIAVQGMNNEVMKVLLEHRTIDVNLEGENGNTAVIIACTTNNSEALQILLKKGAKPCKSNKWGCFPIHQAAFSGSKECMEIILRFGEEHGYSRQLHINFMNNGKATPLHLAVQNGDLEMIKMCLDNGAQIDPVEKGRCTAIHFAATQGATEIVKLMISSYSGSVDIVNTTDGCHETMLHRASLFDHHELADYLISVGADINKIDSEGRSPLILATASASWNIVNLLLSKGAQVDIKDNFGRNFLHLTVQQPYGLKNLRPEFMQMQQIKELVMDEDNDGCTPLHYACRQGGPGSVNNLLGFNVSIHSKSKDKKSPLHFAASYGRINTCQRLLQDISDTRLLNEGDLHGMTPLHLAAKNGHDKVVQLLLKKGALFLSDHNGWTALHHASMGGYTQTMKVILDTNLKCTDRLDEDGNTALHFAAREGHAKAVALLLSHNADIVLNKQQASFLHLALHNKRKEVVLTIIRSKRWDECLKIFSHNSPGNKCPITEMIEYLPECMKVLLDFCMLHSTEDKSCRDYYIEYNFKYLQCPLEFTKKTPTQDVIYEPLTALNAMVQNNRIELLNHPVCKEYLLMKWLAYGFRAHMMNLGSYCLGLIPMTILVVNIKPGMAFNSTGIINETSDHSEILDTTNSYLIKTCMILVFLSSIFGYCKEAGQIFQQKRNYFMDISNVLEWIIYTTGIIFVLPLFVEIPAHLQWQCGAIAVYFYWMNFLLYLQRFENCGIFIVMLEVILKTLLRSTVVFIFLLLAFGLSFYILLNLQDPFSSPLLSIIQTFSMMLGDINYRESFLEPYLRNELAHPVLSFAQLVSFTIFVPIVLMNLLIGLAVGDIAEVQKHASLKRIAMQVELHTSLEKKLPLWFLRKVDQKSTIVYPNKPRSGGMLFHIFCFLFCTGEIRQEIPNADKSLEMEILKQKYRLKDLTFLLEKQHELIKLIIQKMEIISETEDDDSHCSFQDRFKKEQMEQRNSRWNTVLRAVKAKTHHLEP
T2 sequence (O75762 whole entry): as above

With `Cc1cc(/C=C2/SC(=S)NC2=O)c(C)n1-c1cccnc1` [optovin] the “light-dependent motor excitation in vivo” value (zebrafish embryos; 10 μM, n=3, FIG. 4H) was “cause light-dependent motor excitation”, the “behavioral excitation (activity of optovin analogs)” value (zebrafish embryos; 10 μM, n=5, FIG. 2A) was “active” and the “response to stimulus wavelengths” value (zebrafish embryos; 387, 485, 560 nm or longer) was “respond to 387 nm (violet) stimuli, but not to 485 nm (blue), 560 nm (green) or longer wavelengths”. For the same compound, the EC50 (zebrafish embryos; Danio rerio, dose response, n=5, read-out: EC50 of light-induced motor excitation (behavioral excitation score)) was 2000 nM, the “behavioral excitation by singlet oxygen generating photosensitizers” value (zebrafish embryos; FIG. 4F) was “only optovin causes behavioral excitation” and the “response to 387 nm light stimulus” value (zebrafish embryos; TrpA1b homozygous mutant animals) was “failed to respond”. The latency of movement (zebrafish embryos; depending on developmental stage) was 100 to 300 ms, the “relation of stimulus and response duration” value (zebrafish embryos; radiation stimuli lasting between 5 and 20 seconds) was “stimulus and response duration are proportional” and the “increase in motor activity above the control mean (Z-score)” value (zebrafish embryos; screen at ~10 μM, light stimulus, vs DMSO treated controls) was “greater than 40 standard deviations”. The “light response of spinalized preparations” value (zebrafish embryos; trunks transected posterior to the hindbrain) was “respond to light”, the “response to 387 nm light stimulus” value (zebrafish embryos; wild-type, TrpA1a heterozygous and TrpA1a homozygous mutant animals) was “respond to the 387 nm light stimulus with the typical prolonged motor excitation” and the “Off rate (time between end of light stimulus and return to rest)” value (zebrafish embryos; zebrafish, in vivo) was 2 s. The “On rate (latency between start of light stimulus and start of embryo movement)” value (zebrafish embryos; zebrafish, in vivo) was -150 ms, the lowest effective dose (zebrafish embryos; zebrafish, in vivo) was 3 µM and the “radiation stimulus intensity eliciting motor behavior” value (zebrafish embryos; zebrafish, in vivo) was “greater than 1.6 μW/mm^2”. For the same compound, the “response to repeated light pulses” value (zebrafish embryos; zebrafish, in vivo) was “multiple responses can be triggered with repeated light pulses”, the “change in fluorescence in response to light and optovin” value (hTRPA1; WT channels) was “strong change in fluorescence” and the “effect of catalase and superoxide dismutase on optovin's effects” value (hTRPA1; hTRPA1 transfected HEK cells) was “Neither catalase nor superoxide dismutase reduce optovin's effects”. For the same compound, the calcium levels (hTRPA1; optovin and light, HEK cells transfected with hTrpA1) was “elevated calcium levels were observed” and the “current density amplitudes in response to positive voltage steps” value (human TrpA1 (hTrpA1)) was “significantly increased”.
